From US7662832B2, “Pyrrolo[2,3-c]pyridine derivatives and processes for the preparation thereof” (priority 2004, dated 2010)
Counter-ions that a name gives are not always drawn.

Assays:
[1] = molecular target: Proton Pump (H^+/K^+-ATPase) (Sus scrofa, UniProt P19156); assay: Inhibitory effects on proton pump (H^+/K^+-ATPase) activity; type: biochemical; conditions: hog gastric vesicles; K^+ stimulated H^+/K^+-ATPase activity; 30 minutes at 37° C.
[2] = system: basal gastric acid secretion; assay: Inhibitory effects on basal gastric acid secretion in pylorus-ligated rats (Shay's rat model); type: in vivo, Sprague Dawley (SD) rats; conditions: oral, one hour before pylorus ligation, total acid output 5 hours after ligation
Experimental: Inhibitory effects of the compounds of the present invention on basal gastric acid secretion were performed according to Shay's rat model (Shay, H., et al., 1945, gastroenterology, 5, 43-61). Male Sprague Dawley (SD) rats (200±10 g body weight) were divided into […] (n=5) and fasted for 24 hours with free access to water. Control group was orally administered with 0.5% methylcellulose alone and the other groups were orally administered with test compounds suspended in 0.5% methylcellulose solution at doses of 1, 3 and 10 mg/kg/5 ml one hour before pylorus ligation.
Under ether anesthesia, the abdomens of the rats were incised and then the pylorus was ligated. 5 hours after ligation, the animals were sacrificed, and the gastric contents were collected. The collected contents were centrifuged at 1,000×g for 10 minutes to obtain the gastric juice. Total acid output was measured by 0.01N NaOH volume (ueq/ml) for automatic titration of the gastric juice to pH 7.0 and the ED50s of test compounds were calculated using the Litchfield-Wilcoxon method. % inhibitory activity was calculated from the following equation and the results are shown in Table 2. % inhibitory activity of test compound=(total acid output of control group−total acid output of the group treated with test compounds)/total acid output of control group×100

Chain of Proton Pump (H^+/K^+-ATPase) (P19156 2-1034 limits assumed): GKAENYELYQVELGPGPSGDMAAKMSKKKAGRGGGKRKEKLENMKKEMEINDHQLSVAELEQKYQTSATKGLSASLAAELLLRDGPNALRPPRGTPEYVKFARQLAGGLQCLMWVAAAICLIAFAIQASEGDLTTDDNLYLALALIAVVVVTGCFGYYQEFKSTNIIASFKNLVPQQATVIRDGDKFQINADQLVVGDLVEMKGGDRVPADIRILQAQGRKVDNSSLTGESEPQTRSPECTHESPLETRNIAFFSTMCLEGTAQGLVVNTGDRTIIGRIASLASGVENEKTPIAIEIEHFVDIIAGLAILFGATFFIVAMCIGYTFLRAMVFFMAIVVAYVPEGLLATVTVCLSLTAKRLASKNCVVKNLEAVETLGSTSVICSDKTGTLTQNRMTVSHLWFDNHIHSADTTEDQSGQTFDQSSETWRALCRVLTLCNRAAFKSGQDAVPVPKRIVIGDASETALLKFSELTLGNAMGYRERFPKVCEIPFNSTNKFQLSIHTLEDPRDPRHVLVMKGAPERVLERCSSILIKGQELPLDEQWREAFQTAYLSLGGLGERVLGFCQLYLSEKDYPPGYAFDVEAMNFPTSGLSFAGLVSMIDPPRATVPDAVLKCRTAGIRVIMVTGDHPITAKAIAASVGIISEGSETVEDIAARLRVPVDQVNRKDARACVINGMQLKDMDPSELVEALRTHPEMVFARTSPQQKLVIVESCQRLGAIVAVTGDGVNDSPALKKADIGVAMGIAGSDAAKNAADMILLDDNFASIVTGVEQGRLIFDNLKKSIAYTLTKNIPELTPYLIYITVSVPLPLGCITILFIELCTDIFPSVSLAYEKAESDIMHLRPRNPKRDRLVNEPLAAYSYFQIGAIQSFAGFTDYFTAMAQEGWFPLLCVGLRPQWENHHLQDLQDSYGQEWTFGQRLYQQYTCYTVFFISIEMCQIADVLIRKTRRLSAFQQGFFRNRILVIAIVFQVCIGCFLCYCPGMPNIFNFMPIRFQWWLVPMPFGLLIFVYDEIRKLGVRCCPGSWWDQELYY
Chain of Proton Pump (H^+/K^+-ATPase) (P18434 whole entry partner): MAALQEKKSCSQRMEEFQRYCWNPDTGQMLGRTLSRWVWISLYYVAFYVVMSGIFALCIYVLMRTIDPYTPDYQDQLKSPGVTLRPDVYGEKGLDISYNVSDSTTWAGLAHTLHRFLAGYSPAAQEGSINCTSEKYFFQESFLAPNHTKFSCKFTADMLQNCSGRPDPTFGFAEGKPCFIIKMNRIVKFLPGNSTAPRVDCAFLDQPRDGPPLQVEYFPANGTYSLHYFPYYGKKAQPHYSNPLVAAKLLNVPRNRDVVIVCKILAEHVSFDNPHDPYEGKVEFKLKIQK

Row | Structure (SMILES) | IC50 [1] | ED50 [2]
1 | Cc1[nH]c2c(N3CCc4ccccc4C3)nccc2c1C.Cl [Example 468, 7-(1,2,3,4-tetrahydroisoquinolin-2-yl)-2,3-dimethyl-1H-pyrrolo[2,3-c]pyridine hydrochloride] | 190 nM | 5.2 mg/kg
2 | Cc1c(C)n(Cc2ccc(F)cc2)c2c(NCc3ccc(Cl)cc3)nccc12.Cl [Example 218, 7-(4-chlorobenzylamino)-1-(4-fluorobenzyl)-2,3-dimethyl-1H-pyrrolo[2,3-c]pyridine hydrochloride] |  | 4.1 mg/kg
3 | C=CCn1c(C)c(C)c2ccnc(N3CCc4ccccc4C3)c21.Cl [Example 484, 1-allyl-7-(1,2,3,4-tetrahydroisoquinolin-2-yl)-2,3-dimethyl-1H-pyrrolo[2,3-c]pyridine hydrochloride] | 3.7 nM | 1.4 mg/kg
4 | Cc1nc(Cn2c(C)c(C)c3ccnc(N4CCc5ccccc5C4)c32)cs1.Cl [Example 474, 1-(2-methylthiazol-4-ylmethyl)-7-(1,2,3,4-tetrahydroisoquinolin-2-yl)-2,3-dimethyl-1H-pyrrolo[2,3-c]pyridine hydrochloride] | 110 nM | 11.9 mg/kg
5 | Cc1ccc(Cn2c(C)c(C)c3ccnc(N4CCc5ccccc5C4)c32)cc1.Cl [Example 477, 1-(4-methylbenzyl)-7-(1,2,3,4-tetrahydroisoquinolin-2-yl)-2,3-dimethyl-1H-pyrrolo[2,3-c]pyridine hydrochloride] | 300 nM | 2 mg/kg
6 | Cc1c(C)n(Cc2cccc(F)c2)c2c(NCc3ccc(F)cc3)nccc12.Cl [Example 207, 1-(3-fluorobenzyl)-7-(4-fluorobenzylamino)-2,3-dimethyl-1H-pyrrolo[2,3-c]pyridine hydrochloride] |  | 8.3 mg/kg
7 | Cc1nc(Cn2c(C)c(C)c3ccnc(N4CCc5ccc(Cl)cc5C4C)c32)cs1 (stereo not shown) [Example 538, 7-chloro-2-[2,3-dimethyl-1-(2-methylthiazol-4-ylmethyl)-1H-pyrrolo[2,3-c]pyridin-7-yl]-1-methyl-1,2,3,4-tetrahydroisoquinoline hydrochloride] | 244 nM | 
8 | C=CCn1c(C)c(C)c2ccnc(N3CCc4ccccc4C3CC)c21 (stereo not shown) [Example 577, 2-(1-allyl-2,3-dimethyl-1H-pyrrolo[2,3-c]pyridin-7-yl)-1-ethyl-1,2,3,4-tetrahydroisoquinoline hydrochloride] | 140 nM | 
9 | Cc1c(C)n(Cc2cccc(F)c2)c2c(N3CCc4ccccc4C3)nc(C(=O)N3CCCCC3)cc12 [Example 796, [7-(3,4-dihydro-1H-isoquinolin-2-yl)-1-(3-fluorobenzyl)-2,3-dimethyl-1H-pyrrolo[2,3-c]pyridin-5-yl]-(piperidin-1-yl)-methanone hydrochloride] | 305 nM | 
10 | C=Cc1ccc(-c2nccc3c(C)c(C)n(CCC(C)C)c23)cc1 [Example 256, 2,3-dimethyl-1-(3-methylbutyl)-7-(4-vinylphenyl)-1H-pyrrolo[2,3-c]pyridine hydrochloride] | 310 nM | 
11 | COCCn1c(C)c(C)c2ccnc(CN(C)c3ccc(F)cc3)c21 [Example 120, N-(4-fluorophenyl)-N-[1-(2-methoxyethyl)-2,3-dimethyl-1H-pyrrolo[2,3-c]pyridin-7-ylmethyl]-methylamine hydrochloride] | 444 nM | 
12 | C=CCn1c(C)c(C)c2ccnc(N3CCc4ccccc4C3)c21 [Example 492, 1-allyl-7-(1,2,3,4-tetrahydroisoquinolin-2-yl)-2,3-dimethyl-1H-pyrrolo[2,3-c]pyridine phosphate] | 7 nM | 
13 | Cc1c(C)n(Cc2ccc(C(C)(C)C)cc2)c2c(N3CCc4ccccc4C3)nccc12.Cl [Example 507, 1-(4-tert-butylbenzyl)-7-(1,2,3,4-tetrahydroisoquinolin-2-yl)-2,3-dimethyl-1H-pyrrolo[2,3-c]pyridine hydrochloride] |  | 3.1 mg/kg
14 | Cc1c(C)n(Cc2cccc(Cl)c2)c2c(N3CCc4ccccc4C3)nc(C=O)cc12 [Example 863, 1-(3-chlorobenzyl)-7-(3,4-dihydro-1H-isoquinolin-2-yl)-2,3-dimethyl-1H-pyrrolo[2,3-c]pyridin-5-carbaldehyde] | 109 nM | 
15 | Cc1c(C)n(CC(C)C)c2c(N(C)Cc3ccc(F)cc3)nccc12 [Example 149, 7-[N-(4-fluorobenzyl)-N-methyl]amino-1-isobutyl-2,3-dimethyl-1H-pyrrolo[2,3-c]pyridine hydrochloride] | 210 nM | 
16 | CCn1c(C)c(C)c2ccnc(-c3ccc4ccccc4c3)c21 [Example 404, 1-ethyl-2,3-dimethyl-7-(naphthalen-2-yl)-1H-pyrrolo[2,3-c]pyridine hydrochloride] | 95 nM | 
17 | Cc1c(C)n(Cc2ccccc2)c2c(CNc3ccc(F)cc3)nccc12 [Example 89, N-(1-benzyl-2,3-dimethyl-1H-pyrrolo[2,3-c]pyridin-7-ylmethyl)-4-fluorophenylamine hydrochloride] | 321 nM | 
18 | Cc1c(C)n(Cc2ccc(F)cc2)c2c(N3CCc4ccccc4C3)nc(C(=O)N3CCCCC3)cc12 [Example 797, [7-(3,4-dihydro-1H-isoquinolin-2-yl)-1-(4-fluorobenzyl)-2,3-dimethyl-1H-pyrrolo[2,3-c]pyridin-5-yl]-(piperidin-1-yl)-methanone hydrochloride] | 287 nM | 
19 | Cc1c(C)n(Cc2ccc(F)cc2)c2c(CCc3ccccc3)nccc12 [Example 455, 1-(4-fluorobenzyl)-2,3-dimethyl-7-phenethyl-1H-pyrrolo[2,3-c]pyridine hydrochloride] | 400 nM | 
20 | CCNC(=O)c1cc2c(C)c(C)n(Cc3ccccc3)c2c(N2CCc3ccccc3C2)n1 [Example 765, 1-benzyl-7-(3,4-dihydro-1H-isoquinolin-2-yl)-2,3-dimethyl-N-ethyl-1H-pyrrolo[2,3-c]pyridin-5-carboxamide] | 356 nM | 
21 | CNC(=O)c1cc2c(C)c(C)n(Cc3ccccc3)c2c(N2CCc3ccccc3C2)n1 [Example 772, 1-benzyl-7-(3,4-dihydro-1H-isoquinolin-2-yl)-2,3-dimethyl-N-methyl-1H-pyrrolo[2,3-c]pyridin-5-carboxamide hydrochloride] | 546 nM | 

Continued, in another order:

Row | IC50 [1] | Structure (SMILES) | ED50 [2]
22 | 94 nM | Cc1c(C)n(CC(C)C)c2c(NCc3ccc(F)cc3)nccc12.Cl [Example 208, 7-(4-fluorobenzylamino)-1-isobutyl-2,3-dimethyl-1H-pyrrolo[2,3-c]pyridine hydrochloride] | 1.3 mg/kg
23 | 52 nM | Cc1c(C)n(Cc2ccccc2)c2c(N3CCc4ccccc4C3)nccc12.Cl [Example 469, 1-benzyl-7-(1,2,3,4-tetrahydroisoquinolin-2-yl)-2,3-dimethyl-1H-pyrrolo[2,3-c]pyridine hydrochloride] | 1.4 mg/kg
24 | 64 nM | Cc1c(C)n(Cc2ccccc2)c2c(N(C)Cc3ccc(F)cc3)nccc12 [Example 141, 1-benzyl-7-[N-(4-fluorobenzyl)-N-methyl]amino-2,3-dimethyl-1H-pyrrolo[2,3-c]pyridine hydrochloride] | 2.3 mg/kg
25 | 54 nM | Cc1ccccc1CNc1nccc2c(C)c(C)n(CC(C)C)c12.Cl [Example 210, 1-isobutyl-2,3-dimethyl-7-(2-methylbenzylamino)-1H-pyrrolo[2,3-c]pyridine hydrochloride] | 1.9 mg/kg
26 | 3 nM | C=CCn1c(C)c(C)c2cc(C(=O)N3CCNCC3)nc(N3CCc4ccccc4C3)c21 [Example 811, [1-allyl-7-(3,4-dihydro-1H-isoquinolin-2-yl)-2,3-dimethyl-1H-pyrrolo[2,3-c]pyridin-5-yl]-(piperazin-1-yl)-methanone hydrochloride] | 
27 | 29 nM | COc1cccc(Cn2c(C)c(C)c3cc(N)nc(N4CCc5ccccc5C4)c32)c1 [Example 848, 7-(3,4-dihydro-1H-isoquinolin-2-yl)-1-(3-methoxybenzyl)-2,3-dimethyl-1H-pyrrolo[2,3-c]pyridin-5-amine hydrochloride] | 
28 | 92 nM | CCCn1c(C)c(C)c2ccnc(NCc3ccccc3C)c21 [Example 230, 2,3-dimethyl-7-(2-methylbenzylamino)-1-propyl-1H-pyrrolo[2,3-c]pyridine hydrochloride] | 
29 | 53 nM | Cc1c(C)n(Cc2ccccc2)c2c(N3CCc4ccccc4C3)nc(CO)cc12 [Example 850, [1-benzyl-7-(3,4-dihydro-1H-isoquinolin-2-yl)-2,3-dimethyl-1H-pyrrolo[2,3-c]pyridin-5-yl]-methanol hydrochloride] | 
30 | 34 nM | CCN1CCN(C(=O)c2cc3c(C)c(C)n(CC4CC4)c3c(N3CCc4ccccc4C3)n2)CC1 [Example 818, [1-cyclopropylmethyl-7-(3,4-dihydro-1H-isoquinolin-2-yl)-2,3-dimethyl-1H-pyrrolo[2,3-c]pyridin-5-yl]-(4-ethylpiperazin-1-yl)-methanone hydrochloride] | 
31 | 25 nM | Cc1c(C)n(Cc2ccccc2)c2c(CN(C)c3ccc(F)cc3)nccc12 [Example 111, N-(1-benzyl-2,3-dimethyl-1H-pyrrolo[2,3-c]pyridin-7-ylmethyl)-N-(4-fluorophenyl)-methylamine hydrochloride] | 
32 | 82 nM | COCCn1c(C)c(C)c2ccnc(N3CCc4cc(F)ccc4C3C)c21 (stereo not shown) [Example 564, 6-fluoro-2-[1-(2-methoxyethyl)-2,3-dimethyl-1H-pyrrolo[2,3-c]pyridin-7-yl]-1-methyl-1,2,3,4-tetrahydroisoquinoline hydrochloride] | 
